Experimental data: patent publication US20240091242A1, “LIPIDS THAT REDUCE LUNG DAMAGE, IMPROVE PULMONARY FUNCTION AND DECREASE PRO-INFLAMMATORY CYTOKINES” (Signpath Pharma, Inc., priority 2021, published 2024)

Test system: pro-inflammatory cytokines in the plasma
Experiment: Multiplex analysis of cytokine levels in plasma, murine LPS ARDS model
Format: in vivo, mouse
Details: for IL3 level in plasma / IL7 level in plasma / MCP-1 level in plasma / MIP-1alpha level in plasma / MIP-2 level in plasma: in pg/mL (unit assumed)
Source text: C57B16/N mice were obtained from Charles River Laboratories (Montreal, Quebec). Male mice, 20-25 g of body weight, were used throughout the studies. Animals were housed in specific pathogen[…]free conditions, and all experiments were approved by Institutional Animal Care and Use Committee (IPST_SL20200402-1). Animal studies are reported in compliance with […] guidelines.
All delivered mice were kept for one week as an acclimatization period prior to performing any experiments. Animals were housed in a maximum of two mice per cage under a 12[…]h light/12[…]h dark cycle at a temperature of ˜20-22° C. and 40-60% humidity. Food and water were available ad libitum. Each cage of mice was blindly assigned for different treatments or maintained as a control group according to the experimental design. The individual who carried out the experiments was not blinded as to treatment, but data analysis and experiments were otherwise blinded to avoid any bias.
In the ARDS group, mice received Escherichia coli O111:B4 lipopolysaccharide (50 μg in 0.05 mL saline, i.t.), while, in the control group, the animals received an instillation of saline (0.05 mL, i.t.). For intratracheal instillation, mice were slightly anesthetized with isoflurane.
The lipid SPPCT-800 was dissolved in water (low dose—2 mg/ml; high dose—20 mg/ml). For the 24-hour study, two treatment approaches were used. Mice received a single dose of SPPCT-800 (200 mg/kg, per gavage) as prevention (30 minutes before the LPS instillation), or as a single dose of either 20 mg/kg or 200 mg/kg as therapy (3-hour after the LPS instillation). For the 72-hour study, mice received a total of 8 treatments of SPPCT-800 (200 mg/kg) starting at 3-hour after the LPS instillation. Disease progression in mice was assessed by the evaluation of pulmonary functions, blood oxygen saturation, and body weight change. On the terminal day of each study (24 hours or 72 hours), measurement of cytokine levels in the plasma and BALF, and histopathology evaluations were done.
Multiplex analysis of mediators. The inventors quantified 31 different mediators in the BALF and plasma by using a Discovery Assay® (Mouse Cytokine and Chemokine Array 31-Plex (MD31), Eve Technologies Corp, Calgary, AB, Canada). The multiplex assay was performed at Eve Technologies using the Bio-Plex™ 200 system (Bio-Rad Laboratories, Inc., Hercules, CA, USA) and a Milliplex Mouse Cytokine/Chemokine kit (Millipore, St. Charles, MO, USA) according to Eve Tech protocol. The 31-plex consisted of Eotaxin, G-CSF, GM-CSF, IFN-γ, IL-1α, IL-1β, IL-2, IL-3, IL-4, IL-5, IL-6, IL-7, IL-9, IL-10, IL-12 (p40), IL-12 (p70), IL-13, IL-15, IL-17, IP-10, KC, LIF, MCP-1, M-CSF, MIG, MIP-1α, MIP-1β, MIP-2,RANTES, TNFα, and VEGF. The assay sensitivities of these markers range from 0.1 pg/mL to 33.3 pg/mL. Individual analytes' values and other assay details are available on Eve Technologies' website and in the Milliplex protocol.
Statistical Analysis. Results are expressed as means±SEM. Comparisons were made on normally distributed data using ANOVA, followed by a Fisher post hoc test to assess the difference between LPS+vehicle group with GraphPad Prism Software version 8.0 (San Diego, CA, USA). Differences were considered statistically significant when P values were less than 0.05. (* Shown difference versus Sham animals and # shown difference versus LPS+Vehicle group. * Means P<0.05, ** P<0.01, *** P<0.001 while # means P<0.05, ##P<0.01 and ###P<0.001).

[1] = 24-hours, Pre: SPP4040 30 minutes before LPS
[2] = 24-hours, Thera: SPP4040 3 hours after LPS
[3] = 72-hours, Thera: eight SPP4040 injections over 72 hours after LPS

## CCCCCCCCCCCCCC(=O)OCC(COP(=O)([O-])OCC(COC(=O)CCC)OC(=O)CCC)OC(=O)CCCCCCCCCCCCC.CCCCCCCCCCCCCC(=O)OCC(COP(=O)([O-])OCC(COC(=O)CCC)OC(=O)CCC)OC(=O)CCCCCCCCCCCCC.[Mg+2] (centres unmarked) [SPPCT-800]
[1]
  Eotaxin level in plasma: 719 ± 138
  G-CSF level in plasma: 21035 ± 2241
  GM-CSF level in plasma: 12 ± 2
  IFN gamma level in plasma: 1 ± 1
  IL1-alpha level in plasma: 3196 ± 3107
  IL1-beta level in plasma: 3.8 ± 0.7
  IL2 level in plasma: 11 ± 3
  IL4 level in plasma: 0.2 ± 0.1
  IL5 level in plasma: 8 ± 2
  IL6 level in plasma: 176 ± 29
  IL9 level in plasma: 2 ± 1
  IL10 level in plasma: 57 ± 8
  IL12 (p40) level in plasma: 12 ± 1
  IL12 (p70) level in plasma: 17 ± 7
  IL13 level in plasma: 22 ± 3
  IL15 level in plasma: 63 ± 15
  IL17 level in plasma: 2.6 ± 0.3
  IP-10 level in plasma: 790 ± 206
  KC level in plasma: 1271 ± 224
  LIF level in plasma: 1.3 ± 0.2
  LIX level in plasma: 470 ± 145
  M-CSF level in plasma: 12 ± 1
  MIG level in plasma: 2486 ± 203
  MIP-1beta level in plasma: 109 ± 8
  RANTES level in plasma: 200 ± 28
  TNF-alpha level in plasma: 14 ± 1
  VEGF level in plasma: 0.5 ± 0.1
  IL3 level in plasma: 0.9 ± 0.1
  IL7 level in plasma: 8 ± 2
  MCP-1 level in plasma: 86 ± 20
  MIP-1alpha level in plasma: 88 ± 4
  MIP-2 level in plasma: 138 ± 7
[2]
  Eotaxin level in plasma: 855 ± 228
  G-CSF level in plasma: 22915 ± 410
  GM-CSF level in plasma: 11 ± 1
  IFN gamma level in plasma: 1 ± 1
  IL1-alpha level in plasma: 159 ± 39
  IL1-beta level in plasma: 3.6 ± 0.6
  IL2 level in plasma: 16 ± 1
  IL4 level in plasma: 0.4 ± 0.2
  IL5 level in plasma: 11 ± 2
  IL6 level in plasma: 155 ± 30
  IL9 level in plasma: 6 ± 2
  IL10 level in plasma: 90 ± 32
  IL12 (p40) level in plasma: 12 ± 2
  IL12 (p70) level in plasma: 40 ± 19
  IL13 level in plasma: 22 ± 2
  IL15 level in plasma: 49 ± 16
  IL17 level in plasma: 2.3 ± 0.6
  IP-10 level in plasma: 605 ± 102
  KC level in plasma: 764 ± 274
  LIF level in plasma: 1.5 ± 0.2
  LIX level in plasma: 547 ± 203
  M-CSF level in plasma: 16 ± 4
  MIG level in plasma: 2593 ± 317
  MIP-1beta level in plasma: 120 ± 29
  RANTES level in plasma: 270 ± 70
  TNF-alpha level in plasma: 14 ± 1
  VEGF level in plasma: 0.6 ± 0.1
  IL3 level in plasma: 0.5 ± 0.7
  IL7 level in plasma: 4 ± 1
  MCP-1 level in plasma: 157 ± 62
  MIP-1alpha level in plasma: 92 ± 7
  MIP-2 level in plasma: 128 ± 5
72-hour study, P<0.05
  TNF-α levels in the plasma (in words): markedly reduced
[3]
  Eotaxin level in plasma: 464 ± 252
  G-CSF level in plasma: 1116 ± 502
  GM-CSF level in plasma: 6 ± 2
  IFN gamma level in plasma: 6 ± 2
  IL1-alpha level in plasma: 63 ± 27
  IL1-beta level in plasma: 6.8 ± 3.8
  IL2 level in plasma: 34 ± 10
  IL4 level in plasma: 0.6 ± 0.4
  IL5 level in plasma: 2 ± 1
  IL6 level in plasma: 76 ± 31
  IL9 level in plasma: 3 ± 1
  IL10 level in plasma: 5 ± 1
  IL12 (p40) level in plasma: 8 ± 1
  IL12 (p70) level in plasma: 11 ± 5
  IL13 level in plasma: 23 ± 3
  IL15 level in plasma: 40 ± 22
  IL17 level in plasma: 4 ± 3
  IP-10 level in plasma: 150 ± 34
  KC level in plasma: 502 ± 150
  LIF level in plasma: 0.5 ± 0.1
  LIX level in plasma: 574 ± 445
  M-CSF level in plasma: 5 ± 2
  MIG level in plasma: 447 ± 137
  MIP-1beta level in plasma: 55 ± 13
  RANTES level in plasma: 19 ± 2
  TNF-alpha level in plasma: 7 ± 2
  VEGF level in plasma: 7.4 ± 2.4
  IL3 level in plasma: 0.1 ± 0.1
  IL7 level in plasma: 3 ± 1
  MCP-1 level in plasma: 34 ± 6
  MIP-1alpha level in plasma: 133 ± 11
  MIP-2 level in plasma: 56 ± 17
At 24 hours
  IL-1β, IL-2, IL-3, IL-4, IL-5, IL-6, IL-7, IL-9, IL-10, IL-12 (p40), IL-12 (p70), IL-13, IL-15 and IL-17 in plasma (in words): markedly reduced
At 24 hours and at 72 hours
  MCP-1 in the plasma (in words): inhibited
  MIP-1α and MIP 1-β in the plasma (in words): Suppressive effects
At 24 hours, 200 mg/kg preventive, 20 mg/kg therapeutic and 200 mg/kg therapeutic, P<0.001
  GM-CSF in the plasma (in words): highly significant depressions
At 24 hours, all three single dose groups, P<0.001
  TNF-α in the plasma (in words): markedly reduced
At 24 hours, all three single-dose groups, P<0.01
  IFN-γ levels in the plasma (in words): profoundly depressed
At 24 hours, any of the mouse groups
  levels of plasma IL-1α (in words): did not reduce
At 72 hours
  IFN-γ levels in the plasma (in words): Large reductions
At 72 hours, P<0.01
  GM-CSF in the plasma (in words): significant decreases
At both 24 hours and 72 hours
  RANTES in the plasma (in words): suppressed
Marked suppression in the plasma or the BALF, but not in both
  MIG, IP10 and Eotaxin (in words): mixed
mouse, in vivo
  G-CSF, VEGF, KC, LIF, LIX and M-CSF in the plasma (in words): suppressed
Plasma and BALF
  number of the 15 interleukins tested in which major reductions were consistently noted: 14
